From patent publication US9068013B2, “Recombinant lectins, binding-site modified lectins and uses thereof” (SMART CELLS, INC., priority 2010, dated 2015)

Key:
[1] = Gel formation with glycogen (OD490 turbidity); conditions: 10 mg/ml rCon A, 10 or 1 mg/ml glycogen, pH 7 BES buffer, 10 minutes room temperature
Protocol: rCon A synthesised and purified according to Examples 42-44 were tested for their ability to form gels with glycogen. Alpha methyl mannose present in the samples was initially removed as follows. Samples were added to BioSpin 30 columns (Bio-Rad, Hercules, Calif.) that had been previously equilibrated with deionized water. The BioSpin columns were centrifuged for 4 minutes at 1000×g, and the resulting eluent contained rCon A samples that had been substantially desalted and alpha methyl mannose removed. Samples were combined and A280 measurements were obtained. Typically, the A280 measurements correlated with the A280 measurements obtained before removal of alpha methyl mannose.
The following assay was then used to measure gel formation with glycogen. Unmodified Oyster glycogen Type II (Sigma Aldrich, St. Louis, Mo.) was dissolved at 10 mg/ml in pH 7, 200 mM BES buffer (Sigma Aldrich, St. Louis, Mo.). […] The plate was allowed to develop at room temperature for 10 minutes, after which time the turbidity of each plate well was assayed using a commercially available microplate reader (SpectraMAX, Molecular Devices, Mountain View, Calif.) at a wavelength of 490 nm (OD490). […]

[2] = test system: fasted normal non-diabetic rats; assay: Blood glucose depression profile after subcutaneous injection; assay type: in vivo, rat (Male Sprague-Dawley); conditions: non-diabetic SD rats
Protocol: (§1) Blood glucose values were measured using commercially available test strips (Precision Xtra, Abbott Laboratories, Abbott Park, Ill.).
as §1, §1
Blood glucose values were measured using commercially available test strips (Precision Xtra, Abbott Laboratories, Abbott Park, Ill.). In addition, blood from each timepoint was centrifuged at 4 C to collect the serum.

[3] = subcutaneous, 0.25 ml of 20 U of equivalent insulin/ml

Substance: SCI-1: recombinant Con A construct, amino acid sequence SEQ ID NO: 1 (wild-type Con A)
- gel formation with glycogen [1]: formed gels with glycogen that were comparable to gels formed by native (plant-derived) Con A controls

Substance: insulin-dextran: comparative insulin-dextran (MW 70K) conjugate made by CNBr coupling, 10% (w/w) insulin
- time serum glucose levels remain depressed post injection [2, 3]: at least five
- time to reach the glucose nadir (Tnadir) [2, 3]: about 3 hours

Substance: insulin-glycogen: comparative conjugate of insulin with oyster glycogen (Type II) by CNBr coupling, Example 32
- glucose lowering compared to the insulin-dextran conjugates ([2]; 2.5 equivalent U of insulin/kg subcutaneous): lower glucose levels much more rapidly and to a greater extent
